# Active and inactive are the calls of the source. The calls are words filed in the database; no cut-off is given here.
# Tests used:
# [1] = molecular target: Mitogen-activated protein kinase 12 (Homo sapiens, UniProt P53778); assay: Inhibition of p38MAPK gamma (unknown origin) by ATP competitive based analysis
# [2] = molecular target: Mitogen-activated protein kinase 13 (Homo sapiens, UniProt O15264); assay: Inhibition of p38MAPK delta (unknown origin) by ATP competitive based analysis
# [3] = species on record: Homo sapiens; assay: Selectivity index, ratio of IC50 for p38MAPK beta (unknown origin) to IC50 for GSK-3 beta (unknown origin) by ATP competitive based analysis
# [4] = AUC (0 to 24 hrs) in Sprague-Dawley rat at 5 mg/kg, iv measured upto 24 hrs by LC-MS/MS analysis; assay type: ADME, organism-based; design: route intravenous, dose 5 mg/kg, time <=24; conditions: in vivo
# [5] = MRT (0 to t) in Sprague-Dawley rat at 5 mg/kg, iv measured upto 24 hrs by LC-MS/MS analysis; assay type: ADME, organism-based; conditions: in vivo
# [6] = Drug uptake in mouse BV-2 cells at 25 uM incubated for 1 hr measured per million cells by LC-MS/MS analysis; assay type: ADME, cell-based; conditions: bv-2, 1 h
# [7] = Plasma concentration in ICR mouse at 15 mg/kg, po measured after 90 mins by LC-MS/MS analysis; assay type: ADME, organism-based
# [8] = molecular target: Glycogen synthase kinase-3 beta (Mus musculus) (UniProt Q9WV60); assay: Inhibition of GSK3beta in mouse N2a cells overexpressing human tau assessed as tau phosphorylation at Ser396 residue at 2 uM incubated for 6 hrs by Western blot analysis (reference value: […] %); assay type: cell-based; design: scale not given: the % may be the effect or the level left
# [9] = test system: BV-2; assay: Anti-inflammatory activity in mouse BV-2 cells assessed as reduction in LPS-induced TNFalpha expression at 4 uM incubated for 1 hr followed by LPS stimulation and measured after 24 hrs by immunofluorescence based laser confocal microscopy; assay type: functional, cell-based; conditions: time 25.0 hrs
# [10] = species on record: Homo sapiens; assay: Selectivity index, ratio of IC50 for ERK2 (unknown origin) to IC50 for GSK-3 beta (unknown origin) by ATP competitive based analysis
# [11] = molecular target: Cyclin-dependent kinase 2 (Homo sapiens, UniProt P24941); assay: Inhibition of CDK2 (unknown origin) by ATP competitive based analysis
# [12] = molecular target: Mitogen-activated protein kinase 3 (Homo sapiens, UniProt P27361); assay: Inhibition of ERK1 (unknown origin) by ATP competitive based analysis
# [13] = molecular target: Mitogen-activated protein kinase 10 (Homo sapiens, UniProt P53779); assay: Inhibition of JNK3 (unknown origin) by ATP competitive based analysis
# [14] = molecular target: Cholinesterase (Homo sapiens, UniProt P06276); assay: Inhibition of human BChE using butyrylthiocholineiodide as substrate incubated for 10 mins by Ellman's method
# [15] = AUC (0 to 24 hrs) in Sprague-Dawley rat at 10 mg/kg, po measured upto 24 hrs by LC-MS/MS analysis; assay type: ADME, organism-based; design: route oral, dose 10 mg/kg, time <=24; conditions: in vivo
# [16] = molecular target: Glycogen synthase kinase-3 beta (Homo sapiens, UniProt P49841); assay: biochemical
# Description: Inhibition of recombinant human N-terminal His6-tagged GSK3beta H350L mutant expressed in baculovirus infected Sf21 cells using prephosphorylated polypeptide as substrate incubated for 1 min followed by substrate addition and measured after 30 mins by Kinase-Glo luminescence assay
# [17] = molecular target: Glycogen synthase kinase-3 alpha (Homo sapiens, UniProt P49840); assay: Inhibition of GSK3alpha (unknown origin) by ATP competitive based analysis
# [18] = species on record: Homo sapiens; assay: Selectivity index, ratio of IC50 for JNK2 (unknown origin) to IC50 for GSK-3 beta (unknown origin) by ATP competitive based analysis
# [19] = species on record: Homo sapiens; assay: Selectivity index, ratio of IC50 for JNK3 (unknown origin) to IC50 for GSK-3 beta (unknown origin) by ATP competitive based analysis
# [20] = species on record: Homo sapiens; assay: Selectivity index, ratio of IC50 for […] IC50 for GSK-3 beta (unknown origin) by ATP competitive based analysis
# [21] = molecular target: Mitogen-activated protein kinase 1 (Homo sapiens, UniProt P28482); assay: Inhibition of ERK2 (unknown origin) by ATP competitive based analysis
# [22] = molecular target: Cyclin-dependent kinase 7 (Homo sapiens, UniProt P50613); assay: Inhibition of CDK7 (unknown origin) by ATP competitive based analysis
# [23] = Clearance in Sprague-Dawley rat at 5 mg/kg, iv measured upto 24 hrs by LC-MS/MS analysis; assay type: ADME, organism-based; conditions: in vivo
# [24] = molecular target: Cyclin-dependent kinase 1 (Homo sapiens, UniProt P06493); assay: Inhibition of CDK1 (unknown origin) by ATP competitive based analysis
# [25] = Toxicity in ICR mouse model of scopolamine-induced cognitive dysfunction assessed as effect on locomotor activity by measuring effect on swimming speed at 15 mg/kg, po by Morris water maze test; assay type: organism-based; conditions: in vivo
# [26] = species on record: Homo sapiens; assay: Selectivity index, ratio of IC50 for CDK2 (unknown origin) to IC50 for GSK-3 beta (unknown origin) by ATP competitive based analysis
# [27] = molecular target: Glycogen synthase kinase-3 beta (Mus musculus) (UniProt Q9WV60); assay: Inhibition of GSK3beta in mouse N2a cells overexpressing human tau assessed as tau phosphorylation at Ser396 residue at 0.074 uM incubated for 6 hrs by Western blot analysis (reference value: […] %); assay type: cell-based; design: scale not given: the % may be the effect or the level left
# [28] = Volume of distribution in Sprague-Dawley rat at 10 mg/kg, po measured upto 24 hrs by LC-MS/MS analysis; assay type: ADME, organism-based; conditions: in vivo
# [29] = test system: BV-2; assay: Anti-inflammatory activity in mouse BV-2 cells assessed as reduction in LPS-induced TNFalpha production at 8 uM incubated for 1 hr followed by LPS stimulation and measured after 24 hrs by ELISA relative to control; assay type: functional; conditions: time 25 hrs
# [30] = Oral bioavailability in Sprague-Dawley rat at 10 mg/kg measured upto 24 hrs by LC-MS/MS analysis; assay type: ADME, organism-based; conditions: in vivo
# [31] = species on record: Homo sapiens; assay: Selectivity index, ratio of IC50 for p38MAPK gamma (unknown origin) to IC50 for GSK-3 beta (unknown origin) by ATP competitive based analysis
# [32] = test system: BV-2; assay: Anti-inflammatory activity in mouse BV-2 cells assessed as reduction in LPS-induced ROS production at 3 uM incubated for 1 hr followed by LPS stimulation and measured after 24 hrs by DCFH-DA staining based inverted fluorescence microscopy; assay type: functional, cell-based; conditions: time 25.0 hrs
# [33] = molecular target: Glycogen synthase kinase-3 beta (Mus musculus) (UniProt Q9WV60); assay: Inhibition of GSK3beta in mouse N2a cells overexpressing human tau assessed as tau phosphorylation at Ser396 residue at 0.67 uM incubated for 6 hrs by Western blot analysis (reference value: […] %); assay type: cell-based; design: scale not given: the % may be the effect or the level left
# [34] = molecular target: Acetylcholinesterase (Homo sapiens, UniProt P22303); assay: Inhibition of human recombinant AChE expressed in HEK293 cells using acetylthiocholine iodide as substrate incubated for 10 mins by Ellman's method; assay type: cell-based
# [35] = Clearance in Sprague-Dawley rat at 10 mg/kg, po measured upto 24 hrs by LC-MS/MS analysis; assay type: ADME, organism-based; conditions: in vivo
# [36] = test system: BV-2; assay: Cytotoxicity against mouse BV-2 cells assessed as effect on cell morphology; assay type: cell-based
# [37] = test system: BV-2; assay: Anti-inflammatory activity in mouse BV-2 cells assessed as reduction in LPS-induced TNFalpha production incubated for 1 hr followed by LPS stimulation and measured after 24 hrs by ELISA; assay type: functional, cell-based; conditions: dose 2-8 µM, time 25.0 hrs
# [38] = species on record: Homo sapiens; assay: Selectivity index, ratio of IC50 for p38MAPK alpha (unknown origin) to IC50 for GSK-3 beta (unknown origin) by ATP competitive based analysis
# [39] = molecular target: Mitogen-activated protein kinase 14 (Homo sapiens, UniProt Q16539); assay: Inhibition of p38MAPK alpha (unknown origin) by ATP competitive based analysis
# Sequence of Mitogen-activated protein kinase 14 (Q16539 whole entry): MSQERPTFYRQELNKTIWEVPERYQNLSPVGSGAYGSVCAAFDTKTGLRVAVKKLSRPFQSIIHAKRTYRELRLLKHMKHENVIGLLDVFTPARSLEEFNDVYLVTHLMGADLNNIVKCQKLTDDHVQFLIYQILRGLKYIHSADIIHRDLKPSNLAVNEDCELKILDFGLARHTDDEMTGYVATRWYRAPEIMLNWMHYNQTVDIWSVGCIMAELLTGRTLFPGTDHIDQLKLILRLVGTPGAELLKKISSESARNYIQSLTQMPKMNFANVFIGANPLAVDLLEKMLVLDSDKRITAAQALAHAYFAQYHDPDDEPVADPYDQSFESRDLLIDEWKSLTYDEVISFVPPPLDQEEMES
# Sequence of Glycogen synthase kinase-3 beta (Mus musculus) (Q9WV60 whole entry, looked up): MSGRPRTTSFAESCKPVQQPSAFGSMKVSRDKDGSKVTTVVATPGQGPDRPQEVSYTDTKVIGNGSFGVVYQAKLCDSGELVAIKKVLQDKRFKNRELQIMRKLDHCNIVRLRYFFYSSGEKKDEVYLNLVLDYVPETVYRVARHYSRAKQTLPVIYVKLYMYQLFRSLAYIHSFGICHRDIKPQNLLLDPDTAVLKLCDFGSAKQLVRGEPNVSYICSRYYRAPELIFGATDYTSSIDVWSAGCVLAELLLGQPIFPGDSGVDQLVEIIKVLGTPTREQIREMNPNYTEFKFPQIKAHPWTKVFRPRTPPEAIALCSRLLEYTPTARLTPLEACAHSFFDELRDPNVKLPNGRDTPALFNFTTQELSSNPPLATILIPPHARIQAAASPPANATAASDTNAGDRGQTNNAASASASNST
# Sequence of Cholinesterase (P06276 whole entry): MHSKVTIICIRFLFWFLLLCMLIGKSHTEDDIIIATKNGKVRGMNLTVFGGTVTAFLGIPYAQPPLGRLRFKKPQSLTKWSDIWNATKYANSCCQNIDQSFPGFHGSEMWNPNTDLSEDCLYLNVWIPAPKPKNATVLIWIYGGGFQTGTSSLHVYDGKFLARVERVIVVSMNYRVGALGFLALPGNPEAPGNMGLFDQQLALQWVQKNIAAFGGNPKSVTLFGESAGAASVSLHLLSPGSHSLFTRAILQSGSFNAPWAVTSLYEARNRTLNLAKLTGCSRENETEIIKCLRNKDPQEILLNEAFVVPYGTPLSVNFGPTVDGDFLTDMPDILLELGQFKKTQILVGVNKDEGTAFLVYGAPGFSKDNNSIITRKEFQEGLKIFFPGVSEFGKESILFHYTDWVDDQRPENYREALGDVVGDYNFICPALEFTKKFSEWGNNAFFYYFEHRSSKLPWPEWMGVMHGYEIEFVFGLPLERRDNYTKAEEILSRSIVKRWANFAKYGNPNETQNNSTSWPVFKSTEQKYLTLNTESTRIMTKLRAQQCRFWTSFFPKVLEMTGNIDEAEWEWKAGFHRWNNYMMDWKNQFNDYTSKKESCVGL
# Sequence of Mitogen-activated protein kinase 13 (O15264 whole entry): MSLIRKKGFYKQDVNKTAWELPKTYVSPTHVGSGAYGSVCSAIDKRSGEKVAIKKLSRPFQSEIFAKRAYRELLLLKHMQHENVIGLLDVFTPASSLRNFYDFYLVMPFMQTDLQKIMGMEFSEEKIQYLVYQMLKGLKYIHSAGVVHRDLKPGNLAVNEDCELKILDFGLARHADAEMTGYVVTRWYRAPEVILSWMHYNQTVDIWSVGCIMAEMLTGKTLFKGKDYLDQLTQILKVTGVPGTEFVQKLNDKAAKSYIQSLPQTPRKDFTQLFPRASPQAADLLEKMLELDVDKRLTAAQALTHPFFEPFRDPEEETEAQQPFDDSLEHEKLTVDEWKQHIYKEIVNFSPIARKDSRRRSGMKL
# Sequence of Mitogen-activated protein kinase 3 (P27361 whole entry): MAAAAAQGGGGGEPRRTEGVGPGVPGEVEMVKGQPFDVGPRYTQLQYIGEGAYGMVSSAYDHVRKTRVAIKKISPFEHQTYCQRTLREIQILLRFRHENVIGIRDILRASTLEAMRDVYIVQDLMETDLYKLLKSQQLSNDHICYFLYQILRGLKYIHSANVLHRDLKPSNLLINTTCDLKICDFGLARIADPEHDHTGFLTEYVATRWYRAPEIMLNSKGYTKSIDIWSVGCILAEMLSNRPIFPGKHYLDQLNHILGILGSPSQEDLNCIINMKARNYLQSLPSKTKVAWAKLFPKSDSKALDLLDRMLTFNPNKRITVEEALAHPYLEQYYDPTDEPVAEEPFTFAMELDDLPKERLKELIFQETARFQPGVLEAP
# Sequence of Mitogen-activated protein kinase 1 (P28482 whole entry): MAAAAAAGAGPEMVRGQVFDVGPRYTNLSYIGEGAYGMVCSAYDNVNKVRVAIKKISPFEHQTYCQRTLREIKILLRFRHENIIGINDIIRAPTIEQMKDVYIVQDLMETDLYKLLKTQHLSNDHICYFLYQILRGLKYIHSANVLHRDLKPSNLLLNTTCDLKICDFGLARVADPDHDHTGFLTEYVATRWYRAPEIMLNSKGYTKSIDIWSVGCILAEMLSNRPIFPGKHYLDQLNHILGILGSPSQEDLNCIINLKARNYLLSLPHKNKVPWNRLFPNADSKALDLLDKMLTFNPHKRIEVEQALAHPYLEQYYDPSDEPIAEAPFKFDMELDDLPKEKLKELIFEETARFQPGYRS
# Sequence of Cyclin-dependent kinase 1 (P06493 whole entry): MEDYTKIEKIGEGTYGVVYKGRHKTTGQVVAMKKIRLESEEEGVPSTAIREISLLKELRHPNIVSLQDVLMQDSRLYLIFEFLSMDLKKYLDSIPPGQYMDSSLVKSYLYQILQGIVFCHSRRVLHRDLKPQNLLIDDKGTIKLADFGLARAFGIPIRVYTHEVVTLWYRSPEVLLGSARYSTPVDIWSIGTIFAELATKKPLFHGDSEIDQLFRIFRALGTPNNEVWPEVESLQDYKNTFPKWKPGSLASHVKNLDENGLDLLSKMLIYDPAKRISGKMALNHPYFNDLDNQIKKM
# Sequence of Mitogen-activated protein kinase 12 (P53778 whole entry): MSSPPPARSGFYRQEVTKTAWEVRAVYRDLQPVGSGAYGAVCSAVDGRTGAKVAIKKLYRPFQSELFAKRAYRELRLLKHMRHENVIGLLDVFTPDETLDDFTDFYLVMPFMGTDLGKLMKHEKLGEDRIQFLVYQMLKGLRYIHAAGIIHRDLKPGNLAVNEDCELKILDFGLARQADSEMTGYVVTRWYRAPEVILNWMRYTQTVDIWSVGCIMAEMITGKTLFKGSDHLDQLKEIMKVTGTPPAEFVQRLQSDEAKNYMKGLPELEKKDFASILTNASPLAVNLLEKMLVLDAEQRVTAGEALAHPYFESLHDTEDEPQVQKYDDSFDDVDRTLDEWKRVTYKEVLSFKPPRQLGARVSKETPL
# Sequence of Mitogen-activated protein kinase 10 (P53779 whole entry): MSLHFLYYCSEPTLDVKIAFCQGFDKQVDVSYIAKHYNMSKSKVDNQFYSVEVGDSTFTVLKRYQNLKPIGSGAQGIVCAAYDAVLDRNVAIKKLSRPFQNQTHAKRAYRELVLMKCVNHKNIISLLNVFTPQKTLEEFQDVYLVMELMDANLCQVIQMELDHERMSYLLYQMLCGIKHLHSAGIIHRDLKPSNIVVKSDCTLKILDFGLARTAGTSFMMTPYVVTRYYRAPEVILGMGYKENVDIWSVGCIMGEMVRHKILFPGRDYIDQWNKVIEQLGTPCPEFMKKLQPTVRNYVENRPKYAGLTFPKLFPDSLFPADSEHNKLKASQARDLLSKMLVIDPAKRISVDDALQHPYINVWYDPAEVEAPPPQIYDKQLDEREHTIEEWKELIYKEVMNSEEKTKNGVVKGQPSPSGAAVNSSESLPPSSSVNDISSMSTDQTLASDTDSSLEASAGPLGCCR
# Sequence of Glycogen synthase kinase-3 beta (P49841 whole entry): as the sequence (Q9WV60 whole entry, looked up) above, with P390T, A392T, T400A, A402T counted along it
# Sequence of Cyclin-dependent kinase 7 (P50613 whole entry): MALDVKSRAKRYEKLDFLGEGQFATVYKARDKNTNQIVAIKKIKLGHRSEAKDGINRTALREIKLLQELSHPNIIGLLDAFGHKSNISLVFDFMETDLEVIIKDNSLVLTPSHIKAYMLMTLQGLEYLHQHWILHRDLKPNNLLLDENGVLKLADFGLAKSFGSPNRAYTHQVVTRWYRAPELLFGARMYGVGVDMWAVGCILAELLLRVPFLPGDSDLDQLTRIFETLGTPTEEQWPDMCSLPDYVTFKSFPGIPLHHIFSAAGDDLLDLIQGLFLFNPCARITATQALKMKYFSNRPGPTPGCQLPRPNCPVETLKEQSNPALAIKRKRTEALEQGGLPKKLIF
# Sequence of Glycogen synthase kinase-3 alpha (P49840 whole entry): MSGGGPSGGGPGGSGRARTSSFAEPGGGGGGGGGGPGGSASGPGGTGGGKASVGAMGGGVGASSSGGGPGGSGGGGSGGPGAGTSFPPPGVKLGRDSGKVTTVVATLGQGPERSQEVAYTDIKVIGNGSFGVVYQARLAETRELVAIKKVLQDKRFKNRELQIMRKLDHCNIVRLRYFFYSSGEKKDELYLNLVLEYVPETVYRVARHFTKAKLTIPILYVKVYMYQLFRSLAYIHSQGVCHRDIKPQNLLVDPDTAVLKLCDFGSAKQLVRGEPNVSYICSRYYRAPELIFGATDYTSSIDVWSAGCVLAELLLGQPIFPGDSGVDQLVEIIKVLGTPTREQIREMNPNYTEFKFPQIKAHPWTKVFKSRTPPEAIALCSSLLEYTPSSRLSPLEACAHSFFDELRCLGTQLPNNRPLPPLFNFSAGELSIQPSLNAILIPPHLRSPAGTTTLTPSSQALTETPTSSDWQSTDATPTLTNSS
compound,measurement,setting,value
NC(=O)c1sc(-c2ccnc(NC(=O)C3CC3)c2)nc1OCCCC1CCN(Cc2ccc(F)cc2)CC1,IC50,[1],> 300 nM
same,IC50,[2],> 300 nM
same,Ratio IC50,[3],200
same,AUC(0-t),[4],1960 ng·h/mL
same,MRT last at 24 h,[5],3.3 h
same,Drug uptake,[6],722 ng
same,concentration at 1.5 h,[7],265 ng/mL
same,Activity,[8],14.3%
same,Activity,[9],Active
same,Ratio IC50,[10],200
same,IC50,[11],> 300 nM
same,IC50,[12],> 300 nM
same,IC50,[13],> 300 nM
same,IC50,[14],3410 nM
same,AUC(0-t),[15],1160 ng·h/mL
same,IC50,[16],3 nM
same,IC50,[17],12 nM
same,Ratio IC50,[18],200
same,Ratio IC50,[19],200
same,Ratio IC50,[20],200
same,IC50,[21],> 300 nM
same,IC50,[22],> 300 nM
same,clearance,[23],42.5 mL/min/kg
same,IC50,[24],> 300 nM
same,Activity,[25],Non-Toxic
same,Ratio IC50,[26],200
same,Activity,[27],91.1%
same,Vd,[28],60.7 L/kg
same,inhibition at 8 µM,[29],100%
same,bioavailability,[30],30.3%
same,Ratio IC50,[31],200
same,Activity,[32],Active
same,Activity,[33],32.9%
same,IC50,[34],310 nM
same,CL/F,[35],112 mL/min/kg
same,Activity,[36],Non-Toxic
same,Activity,[37],Dose-dependent effect
same,Ratio IC50,[38],200
same,IC50,[39],> 300 nM

# Source: ChEMBL document CHEMBL4680314, “Discovery of potent glycogen synthase kinase 3/cholinesterase inhibitors with neuroprotection as potential therapeutic agent for Alzheimer's disease” (Bioorg Med Chem, 2021)
